# From paper PMC5786306, “An AKAP-Lbc-RhoA interaction inhibitor promotes the translocation of aquaporin-2 to the plasma membrane of renal collecting duct principal cells” (PLoS ONE, 2018)
# Experiments:
# GST = GST (Schistosoma japonicum, UniProt P08515); experiment: ITC control with GST alone; format: binding
# Experimental: ITC measurements were essentially carried out as previously described. The stabilizing RhoA mutant F25N [41] was purified as a GST-RhoA fusion in its GDP-bound form (final gel filtration purification step in 20 mM HEPES, pH 7.5, 150 mM NaCl, 2 mM DTT, 50 μM GDP). In order to exchange GDP against GTPγS, GST-RhoA loaded with GDP was incubated for 20 min in ITC nucleotide exchange buffer (50 mM HEPES, pH 7.5, 20 mM EDTA) at 25°C followed by three dilution and concentration steps in Amicon tubes (10,000 MWCO) using ITC dialysis buffer (50 mM HEPES, pH 7.4, 150 mM NaCl, 5 mM MgCl2, 2 mM β-mercaptoethanol). The nucleotide-loading state was confirmed by HPLC. All proteins used in ITC measurements were dialyzed overnight against ITC dialysis buffer. Protein concentrations were determined with NanoDrop ND-1000. GDP or GTPγS (final concentration 2 mM) and DMSO (2%) were added to the proteins prior to the ITC measurements. Scaff10-8 was dissolved in the same buffer (including 2% DMSO and 2 mM GDP or GTPγS). ITC measurements were performed on a VP-ITC (GE Healthcare, München, DE) at 15°C. Titrations were conducted using 14.8 μM Scaff10-8 in the cell and 235 μM (GST control), 222 μM (GST-RhoA, GDP-bound) or 210 μM (GST-RhoA, GTPγS-bound) in the syringe. The cell was stirred at 351 rpm and a total of 27 x 10 μl injections were added to the cell, separated by 240 s of equilibration. […]
# [1] = system: AQP2 insertion into the plasma membrane of IMCD cells; experiment: Biotinylation of cell surface proteins; format: cell-based, rat; settings: Scaff10-8 30 μM, 1 or 24 h, forskolin 30 μM, 30 min
# Experimental: The assay was performed according to Bogum et al.. IMCD cells were treated with Scaff10-8 at a concentration of 30 μM for 1 or 24 h (0.3% DMSO final concentration). DMSO (0.3%) was used as a control for the 24 h of incubation. Cells were stimulated with forskolin (30 min, 30 μM). Cells were washed twice with ice-cold PBS and incubated with biotinylation buffer (500 μg Biotin per well; 10 mM triethanolamine; 150 mM NaCl; 1 mM MgCl2; 0.1 mM CaCl2; pH 8.0) for 60 min at 4°C. After two washing steps with biotinylation buffer, cells were incubated for 10 min with quenching buffer (50 mM NH4Cl in PBS) at 4°C. Lysates were prepared using biotinylation lysis buffer 1 (SLB; 0.5% Triton X-100; 0.2% BSA; Complete mini EDTA-free). Lysates were sonicated and incubated for 20 min at 37°C. Cell debris was removed by centrifugation (30 min, 15,000x g, 4°C). Lysates were incubated with 80 μl streptavidin agarose beads at 4°C overnight. Beads were washed three times with biotinylation lysis buffer 1 and 2 (SLB; 0.5% Triton X-100; Complete mini EDTA-free). Proteins were eluted using sample buffer and analyzed by Western blotting.
# (A) IMCD cells were treated with either compound (30 μM) or DMSO for 1 or 24 h. Membrane proteins were biotinylated followed by precipitation with streptavidin agarose beads. […] (B) Signals from A were quantified by densitometric analysis. […]
# GST, sequence (P08515 whole entry, the tested form may be a part): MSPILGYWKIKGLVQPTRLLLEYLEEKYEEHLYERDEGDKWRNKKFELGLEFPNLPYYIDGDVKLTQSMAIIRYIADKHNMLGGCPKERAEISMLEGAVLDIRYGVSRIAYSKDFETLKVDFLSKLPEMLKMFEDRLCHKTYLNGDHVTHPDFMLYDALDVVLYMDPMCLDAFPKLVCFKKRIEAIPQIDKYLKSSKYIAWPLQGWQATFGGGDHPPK
smiles,measurement,setting,value
"COc1ccc(-c2coc3cc4oc(=O)c(CCC(=O)O)c(C)c4cc23)cc1 [Scaff10-8, 3-[3-(4-Methoxyphenyl)-5-methyl-7-oxo-furo[3,2-g]chromen-6-yl] propanoic acid]",binding to GST control,GST,did not bind
same,insertion of AQP2 into the plasma membrane,[1],does not promote the insertion of AQP2
